In patent US10226474B2, “Methods and compositions for treatment of non-alcoholic steatohepatitis” (Temple University—Of The Commonwealth System of Higher …, priority 2017, dated 2019):
Like-named read-outs stand apart in the source and are kept apart here.

Legend:
NASH patients [1] = conditions: oral dose of 150 mg, one year, cited from earlier work
[2] = tested on: DIAMOND™ mouse model of NASH; assay: Efficacy of fluasterone in the DIAMOND mouse model of NASH (Western Diet Sugar Water); assay type: in vivo; conditions: for mice progressed to measurable fibrosis by NASH CRN score: 24 week WDSW group 5/10
Procedure: DIAMOND™ (Diet Induced Animal Model of Non-alcoholic fatty liver Disease) mouse model is a mouse model of NASH. This mouse model was used to assess the effect of fluasterone. The drug formulation (subcutaneous injectable formulation) contained fluasterone as an active pharmaceutical ingredient in a vehicle. The vehicle contained RO (reverse osmosis) water mixed with sterile saline solution and 5% Tween-80. The drug formulation was prepared as follows: micronized powder of fluasterone (submicron range particles of fluasterone) was suspended in the vehicle and vortexed to evenly suspend. Two doses of fluasterone were used and compared to vehicle controls and positive and negative natural history controls to determine the impact on weight gain, fatty liver, steatohepatitis, and the progression to fibrosis. The two different doses of fluasterone used were (i) a low dose (LD) fluasterone (5 mg fluasterone/kg body weight) for 8 weeks and (ii) a high dose (HD) fluasterone (20 mg fluasterone/kg body weight) for 8 weeks. Vehicle Control was sterile saline with 5% Tween-80. The other details are as follows: (1) Animal Species: DIAMOND™ Mice (Male C57BL/6J(B6)-129s1/SvImJ(S129)). (2) Positive Control and Treatment Groups' food and drinking water: (a) Food—Western Diet ENVIGO Harlan/Teklad 42% Adjusted Calories from Fat (TD. 88137), and (b) RO Water—Sugar Water—D-fructose Alfa Aesar #A17718 and D-glucose Water—Fisher Scientific #D19-212; Recipe=231 g Fructose+189 g Glucose+750 ml RO (reverse osmosis) water Diluted into 9 L RO Water. This diet is referred to herein as Western Diet Sugar Water (WDSW). (3) Negative Control Group's food and drinking water: (a) Normal Mouse Chow Diet—ENVIGO Harlan/Teklad Normal Rodent Chow (TD 7012 Teklad LM-485), and (b) RO water. This diet is referred to herein interchangeably as Normal Diet Normal Water (NDNW) and Normal Chow Normal Water (NCNW).
Eight-two (82) DIAMOND™ mice were put on the special diet WDSW (high fat diet (Harlan/Teklad 42% fat) and sweetened water (D-Fructose and D-Glucose)) at time point 0 (t=0) (at eight weeks of age). Mice were weighed weekly. Of these, 10 mice were injected subcutaneously with fluasterone at concentration 5 mg/kg and 10 mice were injected subcutaneously with fluasterone at concentration 20 mg/kg, and 5 mice in a staggered group were injected with vehicle starting at 16 weeks on diet (t=16) until 24 weeks (t=24), as described in “Subcutaneous Injection.” For baseline controls, 8 male DIAMOND™ mice were placed on the WDSW at eight weeks of age and given no treatment; these were the positive natural history controls. A second group of 8 male DIAMOND™ mice were continued on the NCNW/NDNW at eight (8) weeks and these were the negative natural history control group. The mice were weighed weekly. At 16, 20, and 24 weeks on diet, fasting insulin was measured in serum from tail vein nick. HOMA-IR scores were calculated. 8 mice on WDSW and 8 mice NDNW were sacrificed at 16 weeks (t=16) on diet as baseline positive and negative controls. 8 mice on WDSW and 8 mice NDNW were sacrificed at 24 weeks (t=24). Carbon dioxide was used as an anesthetic and a cardiac puncture was performed for exsanguination. Cervical dislocation was performed as a secondary means of euthanasia.
As discussed above, the drug formulation used in this experiment contained fluasterone as an active pharmaceutical ingredient in a vehicle. The vehicle contained RO water mixed with sterile saline solution and 5% Tween-80.
Body Weights: Mice were weighed weekly and the weights determined the amount of test compound administered.
Subcutaneous Injection: The mice received a subcutaneous injection 1× daily. In summary, mice were grasped at the scruff of the neck and a suitable place was selected for the injection. The injection site was moved daily to ensure limited distress to the animal. […]

[3] = tested on: TPA-stimulated epidermal hyperplasia in mouse skin; conditions: cited from earlier work
mouse diabetic model = conditions: U.S. Pat. No. 8,431,555; cited from earlier work
NASH patients [4] = conditions: obeticholic acid treatment; cited from earlier work
[5] = tested on: Nonalcoholic Steatohepatitis patients; conditions: PIVENS histologic response criteria; 0.025 considered statistically significant; cited from earlier work

## CSc1ccc(C(=O)/C=C/c2cc(C)c(OC(C)(C)C(=O)O)c(C)c2)cc1 [GFT 505]
NASH patients [1]; all patients
  improvement in histologically-assessed NASH vs. placebo: failed to produce a statistically significant improvement
NASH patients [1]; patients with the mildest form of NASH (NAS<3) excluded
  improvement in histologically-assessed NASH vs. placebo: statistically significant improvement vs. placebo

## C[C@]12CCCCC1=CC[C@@H]1[C@@H]2CC[C@]2(C)C(=O)[C@H](F)C[C@@H]12 [fluasterone, 16α-fluoro-5-androsten-17-one]
[2]; both low dose 5 mg/kg (P 0.01) and high dose 20 mg/kg (P 0.0005) vs 24 weeks WDSW
  fasting blood ketones at necropsy: significantly lower
[2]; both low dose 5 mg/kg and high dose 20 mg/kg s.c., 8 weeks, vs 24 weeks WDSW, P 0.003 each (FIG. 3)
  fasting blood glucose: significantly improved
[2]; both treatment groups vs 24 week positive controls, high dose P<0.039, low dose P<0.008 (FIG. 17)
  SAF Activity score: improved the SAF scores
[2]; both treatment groups vs 24 week positive controls, high dose P<0.05, low dose P<0.001 (FIG. 18)
  NAS score: improved the NAS score
[2]; both treatment groups vs 24 weeks WDSW, high dose P<0.01, low dose P<0.032 (FIG. 14)
  lobular inflammation: significantly reduced inflammation
[2]; fluasterone-treated mice vs WDSW
  serum triglycerides: no significant difference
[2]; fluasterone-treated mice vs WDSW positive controls, low dose P=0.0504
  total serum cholesterol: lower total serum cholesterol
[2]; high dose 20 mg/kg s.c. 1x daily for 8 weeks (weeks 16-24 on WDSW), P=0.054
  liver weight vs WDSW positive control: smaller livers compared to the WDSW 24 wk control group
[2]; high dose 20 mg/kg vs 24 week positive controls, P=0.15
  fibrosis (NASH CRN): not statistically less fibrotic although there was a trend
[2]; high dose 20 mg/kg vs WDSW control, P=0.058
  alkaline phosphatase (ALP): strong trend to improvement
[2]; high dose 20 mg/kg, 24 week WDSW control 10/10, baseline (16 weeks) 5/10
  mice that progressed to NASH: 5/10
[2]; high dose 20 mg/kg
  mice progressed to measurable fibrosis by NASH CRN score: 2/10
[2]; high dose 20 mg/kg, P value of 0.052
  perisinusoidal fibrosis: almost statistically significant
[2]; low and high dose groups vs WDSW positive control, baseline (16 weeks) and end of study (24 weeks)
  fasting insulin (ELISA): not statistically significant between drug treated groups and WDSW positive control
[2]; low and high dose groups vs positive WDSW control, data not shown
  HOMA IR: comparable between the positive WDSW control and the drug treated groups
[2]; low and high dose groups vs positive controls
  steatosis grade: neither treatment group had improved steatosis grade
[2]; low dose 5 mg/kg and high dose 20 mg/kg s.c., 8 weeks, vs 24 week WDSW
  necropsy body weight: comparable to the 24 week positive WDSW controls
[2]; low dose 5 mg/kg s.c. 1x daily for 8 weeks (weeks 16-24 on WDSW), P=0.12
  liver weight vs WDSW positive control: smaller livers than the WDSW positive control group, however the difference was not statistically significant
[2]; low dose 5 mg/kg vs 24 week WDSW, P=0.10
  AST: statistically significant drop in AST
[2]; low dose 5 mg/kg vs 24 week positive control, P=0.026
  hepatocyte ballooning: statistically less ballooning
[2]; low dose 5 mg/kg vs 24 week positive controls, P=0.057
  fibrosis (NASH CRN): lower than the 24 week positive controls
[2]; low dose 5 mg/kg vs WDSW control, P=0.01
  alkaline phosphatase (ALP): significantly lower
[2]; low dose 5 mg/kg vs positive controls, P=0.032
  steatosis percentage: statistically significantly less steatosis percentage
[2]; low dose 5 mg/kg, 24 week WDSW control 10/10, baseline (16 weeks) 5/10
  mice that developed NASH: 7/10
[2]; low dose 5 mg/kg
  mice progressed to measurable fibrosis by NASH CRN score: 1/10
[2]; low dose 5 mg/kg, P=0.002
  perisinusoidal fibrosis: significantly less perisinusoidal fibrosis
[2]; treated mice vs 24 week positive control, P 0.11 (low dose) and 0.051 (high dose)
  ALT: strong trend towards improved ALT (lower ALT)
[3]; oral
  effective dose abolishing TPA-stimulated epidermal hyperplasia: at least 200 mg/kg
[3]; subcutaneous injection
  lowest effective dose abolishing TPA-stimulated epidermal hyperplasia: 2.5 mg/kg
Mouse diabetic model
  hyperglycemia: effective in reducing hyperglycemia

## CC[C@H]1[C@@H](O)[C@@H]2[C@H](CC[C@]3(C)[C@@H]([C@H](C)CCC(=O)O)CC[C@@H]23)[C@@]2(C)CC[C@@H](O)C[C@@H]12 [obeticholic acid]
NASH patients [4]
  insulin sensitivity: decrease in insulin sensitivity
  plasma LDL and total cholesterol: significant increase

## Vitamin E
[5]
  histologic improvement compared with placebo: significant histologic improvement compared with placebo
